Common to all, as to format: functional
Assay [1] concerns Edwardsiella tarda. Kind of assay: Antimicrobial activity against Edwardsiella tarda ATCC15947 assessed as inhibition of microbial growth incubated for 24 hrs by broth microdilution method. Background: In broth dilution the organism is exposed to a series of concentrations in liquid medium.
The test system of assay [2] is Edwardsiella tarda. Kind of assay: Antimicrobial activity against Edwardsiella tarda QDIO-2 assessed as inhibition of microbial growth incubated for 24 hrs by broth microdilution method.
Assay [3] relates to Edwardsiella ictaluri. The assay can be described thus: Antimicrobial activity against Edwardsiella ictaluri ATCC33202 assessed as inhibition of microbial growth incubated for 24 hrs by broth microdilution method.
In assay [4] the test system is Staphylococcus aureus. The assay can be described thus: Antimicrobial activity against Staphylococcus aureus ATCC 29213 assessed as inhibition of microbial growth incubated for 24 hrs by broth microdilution method.
Assay [5] has as its system Staphylococcus aureus. Kind of assay: Antimicrobial activity against methicillin-resistant Staphylococcus aureus ATCC 33591 assessed as inhibition of microbial growth incubated for 24 hrs by broth microdilution method.
The test system of assay [6] is Staphylococcus aureus. The assay can be described thus: Antimicrobial activity against methicillin-resistant Staphylococcus aureus ATCC R6101 assessed as inhibition of microbial growth incubated for 24 hrs by broth microdilution method.
Assay [7] has as its system Bacillus subtilis. Kind of assay: Antimicrobial activity against Bacillus subtilis ATCC 6633 assessed as inhibition of microbial growth incubated for 24 hrs by broth microdilution method.
Assay [8] relates to Escherichia coli. Kind of assay: Antimicrobial activity against Escherichia coli ATCC 25922 assessed as inhibition of microbial growth incubated for 24 hrs by broth microdilution method.
The test system of assay [9] is Acinetobacter baumannii. Kind of assay: Antimicrobial activity against Acinetobacter baumannii 2799 assessed as inhibition of microbial growth incubated for 24 hrs by broth microdilution method.
Assay [10] concerns Pseudomonas aeruginosa. Kind of assay: Antimicrobial activity against Pseudomonas aeruginosa ATCC 27853 assessed as inhibition of microbial growth incubated for 24 hrs by broth microdilution method.
For assay [11], the system named is Candida albicans. Kind of assay: Antimicrobial activity against Candida albicans ATCC 10213 assessed as inhibition of microbial growth incubated for 24 hrs by broth microdilution method.
The test system of assay [12] is RAW264.7. The assay can be described thus: Anti-inflammatory activity in LPS-induced mouse RAW264.7 cells assessed as inhibition of IL-6 production at 10 uM preincubated with compound for 24 hrs followed by compound replacement with DMEM media and measured 6 hrs after LPS stimulation by qRT-PCR analysis relative to control. (In general: Real-time PCR tracks product formation cycle by cycle.)

Assay [13] deals with RAW264.7. Kind of assay: Anti-inflammatory activity in LPS-induced mouse RAW264.7 cells assessed as inhibition of MCP-1 production at 10 uM preincubated with compound for 24 hrs followed by compound replacement with DMEM media and measured 6 hrs after LPS stimulation by qRT-PCR analysis relative to control.
The subject of assay [14] is RAW264.7. Kind of assay: Anti-inflammatory activity in LPS-induced mouse RAW264.7 cells assessed as inhibition of TNF-alpha production at 10 uM preincubated with compound for 24 hrs followed by compound replacement with DMEM media and measured 6 hrs after LPS stimulation by qRT-PCR analysis relative to control.

Square brackets hold non-standard residues; d marks the D form. Peptide text beside a SMILES is read from it. NMeA = CN[C@@H](C)C(=O)O

As a reminder, the MIC is the least concentration at which growth counts as inhibited. Regarding `CC(C)Cc1cnc(CC(C)C)c(=O)[nH]1`, the MIC in assay [1] is 128 µg/mL; in assay [2], 128 µg/mL; in assay [3] it was 64 µg/mL; in assay [4] it was above 128 µg/mL; in [5], above 128 µg/mL; in [6] it was above 128 µg/mL. The MIC in assay [7], in [8], in assay [9], in assay [10] and in [11] was above 128 µg/mL each time.
Turning to `CC(C)Cc1ncc([C@@H](O)C(C)C)n(O)c1=O`, the MIC in [1] is 128 µg/mL; in assay [2], 128 µg/mL; in assay [3] it was 64 µg/mL; in [4], 32 µg/mL; in assay [5] it was 16 µg/mL; in [6], above 128 µg/mL. The MIC in assay [7] was 128 µg/mL; in [8], above 128 µg/mL; in assay [9], 128 µg/mL; in [10] it was above 128 µg/mL; in assay [11] it was 32 µg/mL.
By inhibition is commonly meant how much of the control response was suppressed. As to `CC[C@H](C)[C@@H]1NC(=O)[C@H](C)NC(=O)[C@H](Cc2ccc(OC)cc2)NC(=O)[C@H](C)N(C)C1=O` (cyclo(AI[NMeA]Y(Me))), the figures for the inhibition at 10 µM in [12], in [13] and in assay [14] were 67%, 12% and 6.6%, respectively.
On to `CC[C@H](C)[C@@H]1NC(=O)[C@H]([C@@H](C)O)NC(=O)[C@H](Cc2ccccc2)NC(=O)[C@H](C)N(C)C1=O` (cyclo(FTI[NMeA])), for which the MIC is above 128 µg/mL in assay [1]; 128 µg/mL in assay [2]; 128 µg/mL in assay [3]; above 128 µg/mL in assay [4]; above 128 µg/mL in assay [5]; above 128 µg/mL in assay [6]. Also, the MIC in assay [7], in [8], in [9], in assay [10] and in assay [11] was above 128 µg/mL in each case. Moreover, the figures for the inhibition at 10 µM in [12], in [13] and in [14] were 61%, 56% and 13%, respectively.
Turning to `CC[C@H](C)[C@@H]1NC(=O)[C@H]([C@@H](C)O)NC(=O)[C@H](Cc2ccc(OC)cc2)NC(=O)[C@@H]2CCCN2C1=O` (cyclo(IPY(Me)T)), the MIC in assay [1], in assay [2], in [3], in assay [4], in assay [5] and in assay [6] was above 128 µg/mL in each case. Further, the MIC in assay [7], in assay [8], in assay [9], in assay [10] and in assay [11] was above 128 µg/mL each time. Moreover, the inhibition at 10 µM in assay [12] turned out to be 63%; in [13], 42%; in [14], 16%.
As for `CC[C@H](C)[C@@H]1NC(=O)[C@H]([C@@H](C)O)NC(=O)[C@H](Cc2ccc(OC)cc2)NC(=O)[C@H](C)N(C)C1=O` (cyclo(I[NMeA]Y(Me)T)), the MIC was 128 µg/mL in [1]; above 128 µg/mL in assay [2]; 64 µg/mL in assay [3]; above 128 µg/mL in assay [4]; above 128 µg/mL in assay [5]; above 128 µg/mL in [6]. Also, the MIC in assay [7], in assay [8], in [9], in assay [10] and in assay [11] was above 128 µg/mL each time. The inhibition at 10 µM amounted to 55% in assay [12], 44% in assay [13] and 24% in assay [14].
Regarding `COc1ccc(C[C@@H]2NC(=O)[C@H](C)N(C)C(=O)[C@H](CC(C)C)NC(=O)[C@H]([C@@H](C)O)NC2=O)cc1` (cyclo(L[NMeA]Y(Me)T)), the MIC was 128 µg/mL in assay [1]; above 128 µg/mL in [2]; above 128 µg/mL in assay [3]; above 128 µg/mL in [4]; above 128 µg/mL in assay [5]; above 128 µg/mL in assay [6]. For the same molecule, the MIC in assay [7], in [8], in [9], in [10] and in assay [11] was above 128 µg/mL throughout. For the same molecule, the inhibition at 10 µM in [12] came to 55%; in assay [13], 41%; in assay [14] it was 15%.
On to `CO[C@H]1/C=C/O[C@@]2(C)Oc3c(C)c(O)c4c(O)c(c(/C=N/N5CCN(C)CC5)c(O)c4c3C2=O)NC(=O)/C(C)=C\C=C\[C@H](C)[C@H](O)[C@@H](C)[C@@H](O)[C@@H](C)[C@H](OC(C)=O)[C@@H]1C` [RIFAMPIN], for which the MIC in [1] is 2 µg/mL; in assay [2] it was 4 µg/mL; in [3], 8 µg/mL; in assay [4] it was below 0.25 µg/mL; in assay [5], below 0.25 µg/mL; in assay [6] it was 8 µg/mL. In addition, the MIC in assay [7] was below 0.25 µg/mL; in assay [8] it was 4 µg/mL; in assay [9], 1 µg/mL; in assay [10], 8 µg/mL; in assay [11], below 0.25 µg/mL.
As for `CN[C@H](CC(C)C)C(=O)N[C@H]1C(=O)N[C@@H](CC(N)=O)C(=O)N[C@H]2C(=O)N[C@H]3C(=O)N[C@H](C(=O)N[C@H](C(=O)O)c4cc(O)cc(O)c4-c4cc3ccc4O)[C@H](O)c3ccc(c(Cl)c3)Oc3cc2cc(c3O[C@@H]2O[C@H](CO)[C@@H](O)[C@H](O)[C@H]2O[C@H]2C[C@](C)(N)[C@H](O)[C@H](C)O2)Oc2ccc(cc2Cl)[C@H]1O` [VANCOMYCIN], the MIC in [1] was above 128 µg/mL; in assay [2] it was above 128 µg/mL; in [3] it was above 128 µg/mL; in assay [6], above 128 µg/mL; in assay [7], below 0.25 µg/mL; in assay [8] it was 128 µg/mL. The MIC is 64 µg/mL in [9], above 128 µg/mL in assay [10] and below 0.25 µg/mL in assay [11].
